Experiments:
Type in all cases: physicochemical
[1] = 6 month dry powder stability, Alpha Naphthol content by HPLC
Source text: (§1) NUC-3373 prepared according to Example 3 and Comparative Example 4 was packed into a transparent LDPE bag which was then filled with nitrogen and tied with a strip seal. This bag was then placed into another transparent LDPE bag which was also filled with nitrogen. A silica gel packet was placed between the two bags before the outermost bag was tied with a strip seal. These bags were then placed in a triple laminated sun light barrier bag which was sealed with a heat sealer. The bags were kept in a HDPE container.
(§2) NUC-3373 was initially assayed by HPLC after manufacture (0 months) then after 1 and 2 and/or 3 and 6 months of storage at 2-8° C., 25° C. or 40° C.
The Alpha Naphthol content of the same batches was also determined by HPLC. The levels of the alpha naphthol impurity is a key indicator of stability of the tested material.

[2] = 6 month dry powder stability, HPLC assay
Source text: as §1, §2

[3] = Solution stability, alpha naphthol (0.60 RRT) in DMA:Saline (80:20 v/v); set-up: 0.60 RRT (Alpha Naphthol): unit not given here; conditions: 400 mg/mL in DMA:Saline (80:20 v/v)
Method: Stability data is also provided in Table 4, which compares the levels of alpha naphthol (0.60 RRT) present in solutions of 400 mg/mL NUC-3373, prepared by Example 3 or 4, above, in DMA:Saline (80:20 v/v) at different temperatures measured over set periods of time. The tested solutions are suitable for infusion and injection and the temperatures and times measured are representative of the environments that solutions suitable for infusion and injection would typically be stored in.
In Table 4 the two values provided for each temperature at each time period, separated by “/”, represent different preparations (samples) of that synthesis.

SMILES: C[C@H](NP(=O)(OC[C@H]1O[C@@H](n2cc(F)c(=O)[nH]c2=O)CC1O)Oc1cccc2ccccc12)C(=O)OCc1ccccc1 (stereo partly drawn) [Example 3, Batch 3, 5-fluoro-2′-deoxyuridine-5′-O-[1-naphthyl (benzoxy-L-alaninyl)] phosphate]
- Increase after 6 months, Alpha Naphthol by HPLC ([1]; 2-8 ° C.): None
- Alpha Naphthol by HPLC (% w/w) ([1]; 2-8 ° C., 0 months): 0.18 % w/w
- Alpha Naphthol by HPLC (% w/w) ([1]; 2-8 ° C., 3 months): 0.18 % w/w
- Alpha Naphthol by HPLC (% w/w) ([1]; 2-8 ° C., 6 months): 0.17 % w/w
- Increase after 6 months, Alpha Naphthol by HPLC ([1]; 25 ° C.): None
- Alpha Naphthol by HPLC (% w/w) ([1]; 25 ° C., 0 months): 0.18 % w/w
- Alpha Naphthol by HPLC (% w/w) ([1]; 25 ° C., 3 months): 0.18 % w/w
- Alpha Naphthol by HPLC (% w/w) ([1]; 25 ° C., 6 months): 0.17 % w/w
- Increase after 6 months, Alpha Naphthol by HPLC ([1]; 40 ° C.): None
- Alpha Naphthol by HPLC (% w/w) ([1]; 40 ° C., 0 months): 0.18 % w/w
- Alpha Naphthol by HPLC (% w/w) ([1]; 40 ° C., 1 month): 0.17 % w/w
- Alpha Naphthol by HPLC (% w/w) ([1]; 40 ° C., 2 months): 0.17 % w/w
- Alpha Naphthol by HPLC (% w/w) ([1]; 40 ° C., 3 months): 0.17 % w/w
- Alpha Naphthol by HPLC (% w/w) ([1]; 40 ° C., 6 months): 0.15 % w/w
- Decrease after 6 months, HPLC assay ([2]; 2-8 ° C.): None
- HPLC assay (% w/w on anhydrous and solvent free basis) ([2]; 2-8 ° C., 0 months): 100.3 % w/w
- HPLC assay (% w/w on anhydrous and solvent free basis) ([2]; 2-8 ° C., 3 months): 101.9 % w/w
- HPLC assay (% w/w on anhydrous and solvent free basis) ([2]; 2-8 ° C., 6 months): 100.5 % w/w
- Decrease after 6 months, HPLC assay ([2]; 25 ° C.): None
- HPLC assay (% w/w on anhydrous and solvent free basis) ([2]; 25 ° C., 0 months): 100.3 % w/w
- HPLC assay (% w/w on anhydrous and solvent free basis) ([2]; 25 ° C., 3 months): 101.8 % w/w
- HPLC assay (% w/w on anhydrous and solvent free basis) ([2]; 25 ° C., 6 months): 101.0 % w/w
- Decrease after 6 months, HPLC assay ([2]; 40 ° C.): None
- HPLC assay (% w/w on anhydrous and solvent free basis) ([2]; 40 ° C., 0 months): 100.3 % w/w
- HPLC assay (% w/w on anhydrous and solvent free basis) ([2]; 40 ° C., 1 month): 100.6 % w/w
- HPLC assay (% w/w on anhydrous and solvent free basis) ([2]; 40 ° C., 2 months): 101.5 % w/w
- HPLC assay (% w/w on anhydrous and solvent free basis) ([2]; 40 ° C., 3 months): 102.2 % w/w
- HPLC assay (% w/w on anhydrous and solvent free basis) ([2]; 40 ° C., 6 months): 100.8 % w/w

SMILES: C[C@H](NP(=O)(OC[C@H]1O[C@@H](n2cc(F)c(=O)[nH]c2=O)CC1O)Oc1cccc2ccccc12)C(=O)OCc1ccccc1 (stereo partly drawn) [Comparative Example 4, 5-fluoro-2′-deoxyuridine-5′-O-[1-naphthyl (benzoxy-L-alaninyl)] phosphate]
- Increase after 6 months, Alpha Naphthol by HPLC ([1]; 2-8 ° C.): None
- Alpha Naphthol by HPLC (% w/w) ([1]; 2-8 ° C., 0 months): 0.09 % w/w
- Alpha Naphthol by HPLC (% w/w) ([1]; 2-8 ° C., 3 months): 0.10 % w/w
- Alpha Naphthol by HPLC (% w/w) ([1]; 2-8 ° C., 6 months): 0.09 % w/w
- Increase after 6 months, Alpha Naphthol by HPLC ([1]; 25 ° C.): 0.1 % w/w
- Alpha Naphthol by HPLC (% w/w) ([1]; 25 ° C., 0 months): 0.09 % w/w
- Alpha Naphthol by HPLC (% w/w) ([1]; 25 ° C., 3 months): 0.10 % w/w
- Alpha Naphthol by HPLC (% w/w) ([1]; 25 ° C., 6 months): 0.10 % w/w
- Increase after 6 months, Alpha Naphthol by HPLC ([1]; 40 ° C.): 1.11 % w/w
- Alpha Naphthol by HPLC (% w/w) ([1]; 40 ° C., 0 months): 0.09 % w/w
- Alpha Naphthol by HPLC (% w/w) ([1]; 40 ° C., 1 month): 0.18 % w/w
- Alpha Naphthol by HPLC (% w/w) ([1]; 40 ° C., 2 months): 0.27 % w/w
- Alpha Naphthol by HPLC (% w/w) ([1]; 40 ° C., 3 months): 0.18 % w/w
- Alpha Naphthol by HPLC (% w/w) ([1]; 40 ° C., 6 months): 1.2 % w/w
- Decrease after 6 months, HPLC assay ([2]; 2-8 ° C.): None
- HPLC assay (% w/w on anhydrous and solvent free basis) ([2]; 2-8 ° C., 0 months): 100 % w/w
- HPLC assay (% w/w on anhydrous and solvent free basis) ([2]; 2-8 ° C., 3 months): 100 % w/w
- HPLC assay (% w/w on anhydrous and solvent free basis) ([2]; 2-8 ° C., 6 months): 100 % w/w
- Decrease after 6 months, HPLC assay ([2]; 25 ° C.): 0.1 % w/w
- HPLC assay (% w/w on anhydrous and solvent free basis) ([2]; 25 ° C., 0 months): 99.7 % w/w
- HPLC assay (% w/w on anhydrous and solvent free basis) ([2]; 25 ° C., 3 months): 99.5 % w/w
- HPLC assay (% w/w on anhydrous and solvent free basis) ([2]; 25 ° C., 6 months): 99.6 % w/w
- Decrease after 6 months, HPLC assay ([2]; 40 ° C.): 2.0 % w/w
- HPLC assay (% w/w on anhydrous and solvent free basis) ([2]; 40 ° C., 0 months): 99.7 % w/w
- HPLC assay (% w/w on anhydrous and solvent free basis) ([2]; 40 ° C., 1 month): 99.3 % w/w
- HPLC assay (% w/w on anhydrous and solvent free basis) ([2]; 40 ° C., 2 months): 99.0 % w/w
- HPLC assay (% w/w on anhydrous and solvent free basis) ([2]; 40 ° C., 3 months): 99.3 % w/w
- HPLC assay (% w/w on anhydrous and solvent free basis) ([2]; 40 ° C., 6 months): 97.7 % w/w
- 0.60 RRT (Alpha Naphthol) ([3]; After 1 month at 2-8° C., first preparation (before "/")): 0.04/0.04
- 0.60 RRT (Alpha Naphthol) ([3]; After 1 month at 2-8° C., second preparation (after "/")): 0.04/0.04
- 0.60 RRT (Alpha Naphthol) ([3]; After 1 month at 25 ± 5° C., first preparation (before "/")): 0.29/0.29
- 0.60 RRT (Alpha Naphthol) ([3]; After 1 month at 25 ± 5° C., second preparation (after "/")): 0.29/0.29
- 0.60 RRT (Alpha Naphthol) ([3]; After 3 months at 2-8° C., first preparation (before "/")): 0.06/0.06
- 0.60 RRT (Alpha Naphthol) ([3]; After 3 months at 2-8° C., second preparation (after "/")): 0.06/0.06
- 0.60 RRT (Alpha Naphthol) ([3]; After 3 months at 25 ± 5° C., first preparation (before "/")): 0.45
- 0.60 RRT (Alpha Naphthol) ([3]; After 3 months at 25 ± 5° C., second preparation (after "/")): 0.46
- 0.60 RRT (Alpha Naphthol) ([3]; After 15 days at 2-8° C., first preparation (before "/")): 0.04/0.04
- 0.60 RRT (Alpha Naphthol) ([3]; After 15 days at 2-8° C., second preparation (after "/")): 0.04/0.04
- 0.60 RRT (Alpha Naphthol) ([3]; After 15 days at 25 ± 5° C., first preparation (before "/")): 0.19
- 0.60 RRT (Alpha Naphthol) ([3]; After 15 days at 25 ± 5° C., second preparation (after "/")): 0.20
- 0.60 RRT (Alpha Naphthol) ([3]; Initial): 0.02

Source: patent publication US20250296948A1, “SYNTHESIS OF NUCLEOSIDE DERIVATIVES” (Nucana plc, priority 2022, published 2025)
